# From paper PMC4864329, “In vitro and in vivo efficacy, toxicity, bio-distribution and resistance selection of a novel antibacterial drug candidate” (Scientific Reports, 2016)
# Read-outs that look alike come from different tables or passages of the source. Positions of bridges follow the written chain, without caps; N, C: chain ends. Non-standard residues stand in square brackets, D forms with d. Residues, ends and D or L forms follow the SMILES beside them. Chains are numbered I, II in the order given. βAla = NCCC(=O)O
# Experiments:
# human lymphocytes = settings: positive control
# Procedure: Gene toxicity was assessed by testing the potential of SET-M33L to induce micronuclei in human lymphocytes. Human lymphocytes in whole blood culture, stimulated to divide by addition of PHA 48 hours prior to treatment, were exposed to SET-M33L for 3 hours with and without exogenous metabolic activation (S9 mix), and for 20 hours without S9 mix.
# Analysis of micronucleated cells was based on the criteria described by Fenech and Morley[37] and Fenech[38]. […] Human lymphocytes from informed donors were pooled and diluted with HML media (RPMI 1640, supplemented with 10% fetal calf serum, 0.2 IU/ml sodium heparin, 20 IU/ml penicillin, 20 μg/ml streptomycin and 2.0 mM L-glutamine). […] Cultures were established from the prepared (pooled) sample and dispensed as 5 ml aliquots (in sterile universal containers) so that each culture contained blood (0.4 ml), HML media (4.5 ml) and PHA solution (0.1 ml). The cultures were then incubated at 37 °C, and the cells were resuspended (twice daily) by gentle inversion.
# Lymphocyte cultures were incubated for approximately 48 hours after stimulation with PHA, before addition of SET-M33L; controls were appropriately diluted with vehicle. S9 homogenate was present in appropriate cultures at a final concentration of 2% v/v. Before treatment, all cultures were centrifuged and resuspended in the required volume of fresh medium, taking treatment volume and S9 mix volume into account. SET-M33L preparations were added to cultures at 10% v/v. Cultures were incubated at 37 °C for 3 or 20 hours.
# The cells were centrifuged and the medium replaced with fresh medium. Cytochalasin B, at a final concentration of 6 μg/ml, was then added to all cultures. The cultures were incubated for a further 17 hours until the scheduled harvest time.
# The cells were harvested by centrifugation at 500 g for 5 minutes. […] The prepared slides were examined by fluorescence microscopy. The incidences of mononucleate, binucleate and polynucleate cells were assessed per culture per 1000 binucleate cells. […]
# BALB/c mice = assay: Acute toxicity in mice, single i.v. dose; format: in vivo, mouse
# Procedure: As preliminary toxicity evaluation we first compared the acute toxicity of SET-M33L and SET-M33L-PEG with that of colistin. Animals (10 BALB/c mice/group) were injected i.v. with different amounts of SET-M33L, SET-M33L-PEG or colistin, in single dose, in the range 5–40 mg/kg (Fig. 4), and were monitored for 4 days after inoculation of the peptide. […] At 40 mg/Kg SET-M33L and SET-M33L-PEG produced similar toxicity profiles with strong signs of toxicity and 90–100% mortality after 96 hours. Colistin produced strong signs of toxicity already at 10 mg/Kg: 50% mortality immediately after inoculation and 70% mortality after 24 hours. Colistin induced sudden death in 100% of mice at 20 and 40 mg/Kg.
# Mice were treated by a single i.v. administration of different amounts (40, 20, 10, 5 mg/Kg) of SET-M33L, SET-M33L-PEG or colistin sulfate (Sigma-Aldrich, C4461). Signs of toxicity were checked four times a day by visual inspection. A toxicity score was assigned for the following signs: wiry coat and poor motility = mild signs; very wiry coat, abundant lachrymation and poor motility even under stimulation = manifest signs. Animals were monitored for 4 days after inoculation of the peptide. Mice were weighed every day from arrival to the last day of the experiment. Moribund animals were killed humanely to avoid unnecessary distress.
# [1] = tested on: Klebsiella pneumoniae clinical isolates; format: cell-based; settings: clinical isolates
# Procedure: Minimum inhibitory concentrations (MICs) of SET-M33L were determined against 76 clinical isolates of Pseudomonas aeruginosa and 73 clinical isolates of Klebsiella pneumoniae. The isolates were selected on the basis of their resistance phenotypes and major antibiotic resistance determinants, including resistance to colistin and carriage of carbapenemase-encoding genes (Table 1 and supplemental Tables S1 and S2).
# MIC values were determined against a large collection of clinical isolates. Most isolates were collected during routine susceptibility testing procedures at the Clinical Microbiology Unit of Careggi University Hospital in Florence, while specific isolates were selected according to their phenotype or genotype (e.g. carriage of carbapenemase-encoding genes, inclusion in epidemic bacterial clones, resistance to colistin) from a collection of isolates already available at Department of Medical Biotechnologies, University of Siena. Detailed features of each strain, including relevant resistance phenotypes and genotypes were reported in supplemental Tables S1 and S2. MICs were determined in triplicate using a standard microdilution assay according to the guidelines of the Clinical and Laboratory Standards Institute[34]. SET-M33L was assayed using concentrations in the range 0.09–11.2 μM (0.5–64 μg/mL); testing was performed using a bacterial inoculum of 5 × 10^4 CFU/well prepared in cation-supplemented Mueller-Hinton broth (MHB) (Becton Dickinson, Franklin Lakes, NJ, USA) in a final volume of 100 μl. Results were recorded after 18–20 h of incubation at 35 °C.
# [2] = tested on: K. pneumoniae strain KKBO-1; format: cell-based, Klebsiella pneumoniae; settings: K. pneumoniae KKBO-1
# Procedure: Tests were performed by plating cells on SET-M33L- or colistin-containing MHB.
compound,measurement,setting,value
"O=P1(N(CCCl)CCCl)NCCCO1 (stereo not shown) [CPA, Cyclophosphamide]",Mean of binucleate cells containing micronuclei per 1000 cells,"human lymphocytes; 3h + S9, 10 μg/ml",17.0 per 1000 cells
"CO[C@@]12[C@H](COC(N)=O)C3=C(C(=O)C(C)=C(N)C3=O)N1C[C@@H]1N[C@@H]12 [MMC, Mitomycin C]",Mean of binucleate cells containing micronuclei per 1000 cells,"human lymphocytes; 3h − S9, 0.2 μg/ml",28.0 per 1000 cells
same,Mean of binucleate cells containing micronuclei per 1000 cells,"human lymphocytes; 20h − S9, 0.05 μg/ml",22.5 per 1000 cells
"CC[C@H](C)[C@H](NC(=O)[C@H](CCCCN)NC(=O)[C@@H](N)CCCCN)C(=O)N[C@@H](CCCNC(=N)N)C(=O)N[C@H](C(=O)N[C@@H](CCCNC(=N)N)C(=O)N[C@@H](CC(C)C)C(=O)N[C@@H](CO)C(=O)N[C@@H](C)C(=O)NCCCC[C@H](NC(=O)[C@H](C)NC(=O)[C@H](CO)NC(=O)[C@H](CC(C)C)NC(=O)[C@H](CCCNC(=N)N)NC(=O)[C@@H](NC(=O)[C@H](CCCNC(=N)N)NC(=O)[C@@H](NC(=O)[C@H](CCCCN)NC(=O)[C@@H](N)CCCCN)[C@@H](C)CC)C(C)C)C(=O)NCCCC[C@H](NC(=O)[C@H](CCCCNC(=O)[C@H](C)NC(=O)[C@H](CO)NC(=O)[C@H](CC(C)C)NC(=O)[C@H](CCCNC(=N)N)NC(=O)[C@@H](NC(=O)[C@H](CCCNC(=N)N)NC(=O)[C@@H](NC(=O)[C@H](CCCCN)NC(=O)[C@@H](N)CCCCN)[C@@H](C)CC)C(C)C)NC(=O)[C@H](C)NC(=O)[C@H](CO)NC(=O)[C@H](CC(C)C)NC(=O)[C@H](CCCNC(=N)N)NC(=O)[C@@H](NC(=O)[C@H](CCCNC(=N)N)NC(=O)[C@@H](NC(=O)[C@H](CCCCN)NC(=O)[C@@H](N)CCCCN)[C@@H](C)CC)C(C)C)C(=O)NCCC(=O)O)C(C)C [SET-M33L] (I: H-KKIRVRLSAKK[βAla]-OH / II: H-KKIRVRLSAK / III: H-KKIRVRLSA / IV: H-KKIRVRLSA; amide I:10-IV:C, I:11-II:C, II:10-III:C)",mortality,"BALB/c mice; single i.v. dose 40 mg/Kg, after 96 hours",90–100%
same,lethality and signs of toxicity,"BALB/c mice; single i.v. dose up to 20 mg/kg, monitored 4 days, 10 BALB/c mice/group",not lethal and no signs of toxicity were observed
same,MIC,[1],> 64 µg/mL
same,MIC,[2],0.35 µM
